Data: the Kinase Knowledgebase extract (Sharma et al. 2016)

Molecular target: MAPK14 (human) (UniProt Q16539)
Experiment: Inhibition of MAPK14 Kinase Activity

Sequence of MAPK14 (human) (Q16539 whole entry, looked up): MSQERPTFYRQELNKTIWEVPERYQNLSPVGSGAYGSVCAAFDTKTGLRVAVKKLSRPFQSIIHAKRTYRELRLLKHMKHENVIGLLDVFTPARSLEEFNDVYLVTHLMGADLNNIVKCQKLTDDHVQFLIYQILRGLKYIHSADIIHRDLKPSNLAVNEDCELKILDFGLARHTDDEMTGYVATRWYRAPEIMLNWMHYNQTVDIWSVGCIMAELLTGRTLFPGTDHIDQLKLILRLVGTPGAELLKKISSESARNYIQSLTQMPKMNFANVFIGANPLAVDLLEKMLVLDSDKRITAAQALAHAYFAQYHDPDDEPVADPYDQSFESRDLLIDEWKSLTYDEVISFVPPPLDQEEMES

IC50, ≤ 10 µM:
Cc1ccc(CC2CCC(=O)N(c3c(Cl)ccnc3Cl)C2)c(C)c1 (stereo not drawn)
CNC1CCC(Cl)C(N2CC(Sc3ccc(F)cc3F)CCC2=O)C1Cl (stereo not drawn)
O=C1CCC(Oc2cc(Cl)cc(Cl)c2)CN1c1c(Cl)cccc1Cl (stereo not drawn)
O=C1CCC(Sc2ccc(F)cc2F)CN1c1c(Cl)sc(CO)c1Cl (stereo not drawn)
O=C1NCC(Cc2ccccc2F)CN1c1c(Cl)cccc1Cl (stereo not drawn)
O=C1CCC(Cc2ccc(F)cc2F)CN1C1C(Cl)CCC(CO)C1Cl (stereo not drawn)
Cc1cccc(C)c1N1CC(Cc2ccccc2OCC(=O)O)CCC1=O (stereo not drawn)
O=C1CCC(Cc2ccc(F)cc2F)CN1c1c(Cl)ncc(CO)c1Cl (stereo not drawn)
CNc1ccc(Cl)c(N2CC(Cc3ccc(F)cc3F)SCC2=O)c1Cl (stereo not drawn)
O=C1NCC(Cc2ccc(F)cc2F)CN1c1c(Cl)ccc(CO)c1Cl (stereo not drawn)
CC(=O)N(C)c1cc(Cl)c(N2CC(Cc3ccc(F)cc3F)CCC2=O)c(Cl)c1 (stereo not drawn)
O=C1CCC(Oc2ccc3ccccc3c2)CN1c1c(Cl)cncc1Cl (stereo not drawn)
O=C1CCC(Oc2ccc(F)cc2F)CN1c1c(Cl)csc1Cl (stereo not drawn)
Cc1cccc(C)c1N1CC(Cc2ccccc2C(=O)O)CCC1=O (stereo not drawn)
CN(C)C(=O)CNc1cc(Cl)c(N2CC(Cc3ccc(F)cc3F)CCC2=O)c(Cl)c1 (stereo not drawn)
C[C@@H]1C[C@H](Cc2ccc(F)cc2F)CN(c2c(Cl)cc([N+](=O)[O-])cc2Cl)C1=O
CC(C)(C)OC(=O)N[C@@H](COCc1ccccc1)C(=O)Nc1cc(Cl)c(N2CC(Cc3ccc(F)cc3F)CCC2=O)c(Cl)c1 (stereo partly drawn)
COC(=O)Nc1cc(Cl)c(N2CC(Cc3ccc(F)cc3F)CCC2=O)c(Cl)c1 (stereo not drawn)
O=C1CCC(Cc2cccc3ccccc23)CN1c1c(Cl)csc1Cl (stereo not drawn)
Cc1cccc(C)c1N1CC(/C=C/Cc2ccccc2)(CO)CCC1=O (stereo not drawn)
Cc1cc(C#CCN(C)C)cc(C)c1N1C[C@@H](Cc2ccc(F)cc2F)C[C@@H](C)C1=O
CCOC(=O)COc1ccccc1CC1CCC(=O)N(c2c(C)cccc2C)C1 (stereo not drawn)
N[C@H]1C[C@@H](Cc2ccc(F)cc2F)CN(c2c(Cl)cccc2Cl)C1=O
O=C1CCC(Cc2ccc(F)cc2F)CN1c1cc(NCCO)ccc1Cl (stereo not drawn)
O=C(Cc1ccccc1)Nc1cnc(Cl)c(N2CC(Oc3ccc(F)cc3F)CCC2=O)c1Cl (stereo not drawn)
O=C1CCC(Oc2ccc(F)cc2F)CN1c1c(Cl)ccc(O)c1Cl (stereo not drawn)
O=C1CCC(Oc2ccccc2)CN1c1c(Cl)cccc1Cl (stereo not drawn)
O=C1CCC(Oc2ccc(F)cc2F)CN1C1C(Cl)CCC(CO)C1Cl (stereo not drawn)
Cc1ccc(OC2CCC(=O)N(c3c(Cl)cccc3Cl)C2)cc1 (stereo not drawn)
O=C1OCC(Cc2ccc(F)cc2F)CN1c1c(Cl)cccc1Cl (stereo not drawn)
O=C1NCC(Cc2ccc(Cl)cc2)CN1c1c(Cl)cccc1Cl (stereo not drawn)
CNc1cc(Cl)c(N2CC(Cc3ccc(F)cc3F)COC2=O)c(Cl)c1 (stereo not drawn)
CC(=O)Nc1cc(Cl)c(N2CC(Oc3ccc(F)cc3F)CCC2=O)c(Cl)n1 (stereo not drawn)
O=C1CCC(Nc2ccc(F)cc2F)CN1c1c(Cl)cccc1Cl (stereo not drawn)
O=C1CCC(Oc2ccc(F)cc2)CN1c1c(Cl)ccnc1Cl (stereo not drawn)
Cc1cccc(NC(=O)NCc2ccccc2CC2CCC(=O)N(c3c(Cl)cccc3Cl)C2)c1 (stereo not drawn)
COC(=O)/C=C/c1cc(C)c(N2CC(Cc3ccc(F)cc3F)CCC2=O)c(C)c1 (stereo not drawn)
NC(=O)C[C@H](N)C(=O)Nc1cc(Cl)c(N2CC(Cc3ccc(F)cc3F)CCC2=O)c(Cl)c1 (stereo partly drawn)
CC(=O)Nc1ccc(Cl)c(N2CC(Oc3ccc(F)cc3F)CCC2=O)c1Cl (stereo not drawn)
O=C(CNc1cc(Cl)c(N2CC(Cc3ccc(F)cc3F)CCC2=O)c(Cl)c1)NOCc1ccccc1 (stereo not drawn)
Cc1ccc(CC2CN(c3c(Cl)cccc3Cl)C(=O)CS2)cc1 (stereo not drawn)
O=C1CNC(Cc2ccc(F)cc2F)CN1c1c(Cl)cccc1Cl (stereo not drawn)
Cc1cc(C)cc(SC2CCC(=O)N(c3c(Cl)ccnc3Cl)C2)c1 (stereo not drawn)
O=C1CCC(Sc2ccc(F)cc2F)CN1c1c(Cl)ncc(O)c1Cl (stereo not drawn)
O=C1CCC(Cc2ccccc2F)CN1c1c(Cl)ccnc1Cl (stereo not drawn)
COc1ccc(CC2CN(C)C(=O)N(c3c(Cl)cccc3Cl)C2)cc1 (stereo not drawn)
O=C1CCC(Sc2ccccc2)CN1c1c(Cl)cccc1Cl (stereo not drawn)
Cc1ccc(CC2CCC(=O)N(c3c(Cl)cccc3Cl)C2)cc1 (stereo not drawn)
O=C(Cc1ccccc1)Nc1cc(Cl)c(N2CC(Cc3ccc(F)cc3F)OCC2=O)c(Cl)c1 (stereo not drawn)
O=C(Cc1ccccc1)Nc1ncc(Cl)c(N2CC(Cc3ccc(F)cc3F)CCC2=O)c1Cl (stereo not drawn)
Cc1ccc(CC2CN(C)C(=O)N(c3c(Cl)cccc3Cl)C2)c(C)c1 (stereo not drawn)
O=C1CCC(Cc2cc(Cl)cc(Cl)c2)CN1c1c(Cl)csc1Cl (stereo not drawn)
O=C1NCC(Cc2ccccc2Cl)CN1c1c(Cl)cccc1Cl (stereo not drawn)
CC(=O)Nc1ncc(Cl)c(N2CC(Cc3ccc(F)cc3F)CCC2=O)c1Cl (stereo not drawn)
O=C1CCC(Sc2ccc(F)cc2F)CN1c1c(Cl)cncc1Cl (stereo not drawn)
CC(=O)NCCN(C(=O)OC(C)(C)C)c1cc(Cl)c(N2CC(Cc3ccc(F)cc3F)CCC2=O)c(Cl)c1 (stereo not drawn)
Cc1ccccc1CC1COC(=O)N(c2c(Cl)cccc2Cl)C1 (stereo not drawn)
COc1ccccc1CC1CCC(=O)N(c2c(Cl)csc2Cl)C1 (stereo not drawn)
C[C@@H]1C[C@H](Cc2ccc(F)cc2F)CN(c2c(Cl)cc(Br)cc2Cl)C1=O
O=C(O)/C=C/c1ccccc1CC1CCC(=O)N(c2c(Cl)cccc2Cl)C1 (stereo not drawn)
CNc1sc(Cl)c(N2CC(Cc3ccc(F)cc3F)CCC2=O)c1Cl (stereo not drawn)
Cc1ccc(CC2CN(c3c(Cl)cccc3Cl)C(=O)CO2)c(C)c1 (stereo not drawn)
O=C1NCC(Cc2ccc(F)cc2F)CN1c1c(Cl)cc(O)cc1Cl (stereo not drawn)
O=C1OCC(Cc2ccc(Cl)cc2Cl)CN1c1c(Cl)cccc1Cl (stereo not drawn)
Cc1cccc(C)c1N1CC(Cc2ccccc2O)CCC1=O (stereo not drawn)
O=C1CCC(Sc2cc(Cl)cc(Cl)c2)CN1c1c(Cl)cccc1Cl (stereo not drawn)
NC1CC(Cl)C(N2CC(Sc3ccc(F)cc3F)CCC2=O)C(Cl)C1 (stereo not drawn)
O=C1CSC(Cc2ccccc2)CN1c1c(Cl)cccc1Cl (stereo not drawn)
CC(=O)Nc1sc(Cl)c(N2CC(Sc3ccc(F)cc3F)CCC2=O)c1Cl (stereo not drawn)
O=C1CCC(Oc2ccccc2F)CN1C1C(Cl)CCCC1Cl (stereo not drawn)
CNc1cnc(Cl)c(N2CC(Sc3ccc(F)cc3F)CCC2=O)c1Cl (stereo not drawn)
CC(=O)Nc1cc(Cl)c(N2CC(Cc3ccc(F)cc3F)CCC2=O)c(Cl)c1 (stereo not drawn)
COc1ccccc1SC1CCC(=O)N(c2c(Cl)ccnc2Cl)C1 (stereo not drawn)
O=C1CSC(Cc2ccc(F)cc2F)CN1c1c(Cl)cc(CO)cc1Cl (stereo not drawn)
O=C1CCC(Cc2ccc(F)cc2F)CN1c1c(Cl)cc(C#CCCO)cc1Cl (stereo not drawn)
CC(C)(C)OC(=O)N(CCNC(N)=O)c1cc(Cl)c(N2CC(Cc3ccc(F)cc3F)CCC2=O)c(Cl)c1 (stereo not drawn)
O=C(Cc1ccccc1)Nc1sc(Cl)c(N2CC(Cc3ccc(F)cc3F)CCC2=O)c1Cl (stereo not drawn)
O=C1CCC(CCc2ccccc2)CN1c1c(Cl)cccc1Cl (stereo not drawn)
CCOC(=O)CCC(=O)Nc1cc(Cl)c(N2CC(Cc3ccc(F)cc3F)CCC2=O)c(Cl)c1 (stereo not drawn)
Cc1cc(N)cc(C)c1N1CC(Cc2ccc(F)cc2F)CNC1=O (stereo not drawn)
Cc1cccc(C)c1N1CC(CCCc2ccccc2)CCC1=O (stereo not drawn)
CC(=O)Nc1ncc(Cl)c(N2CC(Sc3ccc(F)cc3F)CCC2=O)c1Cl (stereo not drawn)
Cc1cccc(C)c1N1CC(Cc2ccc(F)cc2F)CCC1=O (stereo not drawn)
O=C(Cc1ccccc1)NC1CCC(Cl)C(N2CC(Oc3ccc(F)cc3F)CCC2=O)C1Cl (stereo not drawn)
CC(=O)Nc1cc(Cl)c(N2CC(Cc3ccc(F)cc3F)SCC2=O)c(Cl)c1 (stereo not drawn)
O=C1CCC(Oc2ccccc2Cl)CN1c1c(Cl)cncc1Cl (stereo not drawn)
O=C1OCC(Cc2ccccc2Cl)CN1c1c(Cl)cccc1Cl (stereo not drawn)
CC(=O)Nc1cc(Cl)c(N2CC(Cc3ccc(F)cc3F)CNC2=O)c(Cl)c1 (stereo not drawn)
O=C1CCC(Cc2ccc3ccccc3c2)CN1c1c(Cl)cccc1Cl (stereo not drawn)
O=C1COC(Cc2ccc(F)cc2)CN1c1c(Cl)cccc1Cl (stereo not drawn)
O=C1CCC(C(O)c2cccs2)CN1c1c(Cl)cc(Br)cc1Cl (stereo not drawn)
O=C1CCC(Cc2ccccc2)CN1C1C(Cl)CCCC1Cl (stereo not drawn)
COc1ccccc1CC1CN(c2c(Cl)cccc2Cl)C(=O)CS1 (stereo not drawn)
CNC1CC(Cl)C(N2CC(Sc3ccc(F)cc3F)CCC2=O)C(Cl)C1 (stereo not drawn)
CN1CC(Cc2ccc(F)cc2F)CN(c2c(Cl)cccc2Cl)C1=O (stereo not drawn)
O=C1CCC(Sc2ccc3ccccc3c2)CN1c1c(Cl)csc1Cl (stereo not drawn)
O=C1CSC(Cc2ccc(Cl)cc2Cl)CN1c1c(Cl)cccc1Cl (stereo not drawn)
COc1ccccc1OC1CCC(=O)N(C2C(Cl)CCCC2Cl)C1 (stereo not drawn)
O=C1CCC(Cc2ccc3ccccc3c2)CN1c1c(Cl)csc1Cl (stereo not drawn)
COc1ccccc1CC1CCC(=O)N(c2c(Cl)ccnc2Cl)C1 (stereo not drawn)
O=C1CCC(Sc2ccc(F)cc2)CN1c1c(Cl)csc1Cl (stereo not drawn)
COc1ccccc1OC1CCC(=O)N(c2c(Cl)ccnc2Cl)C1 (stereo not drawn)
O=C1CCC(Cc2cc(Cl)cc(Cl)c2)CN1c1c(Cl)ccnc1Cl (stereo not drawn)
Cc1cccc(C)c1N1CC(Cc2ccccc2OCC(C)C)CCC1=O (stereo not drawn)
Cc1ccc(OC2CCC(=O)N(c3c(Cl)ccnc3Cl)C2)cc1 (stereo not drawn)
O=C1OCC(Cc2ccc(F)cc2F)CN1c1c(Cl)cc(O)cc1Cl (stereo not drawn)
Nc1ccc(Cl)c(N2CC(Cc3ccc(F)cc3F)CSC2=O)c1Cl (stereo not drawn)
CN1CC(Cc2ccccc2)CN(c2c(Cl)cccc2Cl)C1=O (stereo not drawn)
O=C1CCC(Cc2ccc(F)cc2F)CN1c1ccccc1CCO (stereo not drawn)
CC(=O)NC1CC(Cl)C(N2CC(Cc3ccc(F)cc3F)CCC2=O)C(Cl)C1 (stereo not drawn)
O=C1CCC(Sc2ccc(F)cc2F)CN1c1c(Cl)cc(O)nc1Cl (stereo not drawn)
O=C1SCC(Cc2ccc3ccccc3c2)CN1c1c(Cl)cccc1Cl (stereo not drawn)
O=C1CCC(Cc2ccc(F)cc2)CN1c1c(Cl)csc1Cl (stereo not drawn)
